Source: US20100113291A1 (CENTRE NATIONAL DE LA RECHERCHE SCIENTIFIQUE, priority 2006, published 2010)

Biological target: T1, MabA-C60V/S144L (Mycobacterium tuberculosis, UniProt P9WGT3, C60V/S144L)
T1 construct: made in house; host or cells: Escherichia coli
Format: binding
Details: read-out: KD for the cofactor

**Q.** How did the Kd turn out when NC(=O)C1=CN([C@@H]2O[C@H](COP(=O)(O)OP(=O)(O)OC[C@H]3O[C@@H](n4cnc5c(N)ncnc54)[C@H](OP(=O)(O)O)[C@@H]3O)[C@@H](O)[C@H]2O)C=CC1 [NADPH] was run?
**A.** 11.2 µM
